This is an account of results in US20260092071A1, “COMPOUNDS AND COMPOSITIONS AS SMARCA2/4 DEGRADERS AND USES THEREOF” (REGENTS OF THE UNIVERSITY OF MICHIGAN, priority 2022, published 2026).

For one test, the target named is SMARCA4 (Homo sapiens, UniProt P51532). In words: HiBit assay in engineered HT1080 CRISPR knock-in cell, 6 hrs (B series), SMARCA4. It counts as cell-based. The conditions noted are these: 6 hrs incubation; for DC50: HT1080 CRISPR knock-in cells, read-out: SMARC A4 HT1080 HiBit DC50; for Dmax: HT-1080, HT1080 CRISPR knock-in cells, read-out: SMARC A4 HT1080 HiBit Dmax(%). The essentials:
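Engineered HT1080 knock-in cells, 2000 cells/well, 6 hrs compound exposure, 37° C/5% CO2, 0.1% DMSO final. Lytic detection: LgBiT 1:100 plus HiBiT substrate 1:50 in lytic buffer, 10 min shake at RT, luminescence read.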
(With HiBiT, luminescence reflects the tagged protein that the partner subunit can reach.)

In the next test the target is SMARCA2 (Homo sapiens, UniProt P51531). In words: HiBit assay in engineered HT1080 CRISPR knock-in cell, 6 hrs (B series), SMARCA2. It counts as cell-based. The conditions noted are these: 6 hrs incubation; for DC50: HT1080 CRISPR knock-in cells, read-out: SMARC A2 HT1080 HiBit DC50; for Dmax: HT-1080, HT1080 CRISPR knock-in cells, read-out: SMARC A2 HT1080 HiBit Dmax (%). The essentials: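 HT1080 CRISPR knock-in cells carrying HiBiT-tagged SMARCA2 seeded onto compound (0.1% DMSO) at 2000 cells/well. Incubated 6 h at 37 °C, 5% CO2, then lysed with Nano-Glo HiBiT lytic reagent containing LgBiT, and luminescence read.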
Sequence of SMARCA2 (P51531 whole entry): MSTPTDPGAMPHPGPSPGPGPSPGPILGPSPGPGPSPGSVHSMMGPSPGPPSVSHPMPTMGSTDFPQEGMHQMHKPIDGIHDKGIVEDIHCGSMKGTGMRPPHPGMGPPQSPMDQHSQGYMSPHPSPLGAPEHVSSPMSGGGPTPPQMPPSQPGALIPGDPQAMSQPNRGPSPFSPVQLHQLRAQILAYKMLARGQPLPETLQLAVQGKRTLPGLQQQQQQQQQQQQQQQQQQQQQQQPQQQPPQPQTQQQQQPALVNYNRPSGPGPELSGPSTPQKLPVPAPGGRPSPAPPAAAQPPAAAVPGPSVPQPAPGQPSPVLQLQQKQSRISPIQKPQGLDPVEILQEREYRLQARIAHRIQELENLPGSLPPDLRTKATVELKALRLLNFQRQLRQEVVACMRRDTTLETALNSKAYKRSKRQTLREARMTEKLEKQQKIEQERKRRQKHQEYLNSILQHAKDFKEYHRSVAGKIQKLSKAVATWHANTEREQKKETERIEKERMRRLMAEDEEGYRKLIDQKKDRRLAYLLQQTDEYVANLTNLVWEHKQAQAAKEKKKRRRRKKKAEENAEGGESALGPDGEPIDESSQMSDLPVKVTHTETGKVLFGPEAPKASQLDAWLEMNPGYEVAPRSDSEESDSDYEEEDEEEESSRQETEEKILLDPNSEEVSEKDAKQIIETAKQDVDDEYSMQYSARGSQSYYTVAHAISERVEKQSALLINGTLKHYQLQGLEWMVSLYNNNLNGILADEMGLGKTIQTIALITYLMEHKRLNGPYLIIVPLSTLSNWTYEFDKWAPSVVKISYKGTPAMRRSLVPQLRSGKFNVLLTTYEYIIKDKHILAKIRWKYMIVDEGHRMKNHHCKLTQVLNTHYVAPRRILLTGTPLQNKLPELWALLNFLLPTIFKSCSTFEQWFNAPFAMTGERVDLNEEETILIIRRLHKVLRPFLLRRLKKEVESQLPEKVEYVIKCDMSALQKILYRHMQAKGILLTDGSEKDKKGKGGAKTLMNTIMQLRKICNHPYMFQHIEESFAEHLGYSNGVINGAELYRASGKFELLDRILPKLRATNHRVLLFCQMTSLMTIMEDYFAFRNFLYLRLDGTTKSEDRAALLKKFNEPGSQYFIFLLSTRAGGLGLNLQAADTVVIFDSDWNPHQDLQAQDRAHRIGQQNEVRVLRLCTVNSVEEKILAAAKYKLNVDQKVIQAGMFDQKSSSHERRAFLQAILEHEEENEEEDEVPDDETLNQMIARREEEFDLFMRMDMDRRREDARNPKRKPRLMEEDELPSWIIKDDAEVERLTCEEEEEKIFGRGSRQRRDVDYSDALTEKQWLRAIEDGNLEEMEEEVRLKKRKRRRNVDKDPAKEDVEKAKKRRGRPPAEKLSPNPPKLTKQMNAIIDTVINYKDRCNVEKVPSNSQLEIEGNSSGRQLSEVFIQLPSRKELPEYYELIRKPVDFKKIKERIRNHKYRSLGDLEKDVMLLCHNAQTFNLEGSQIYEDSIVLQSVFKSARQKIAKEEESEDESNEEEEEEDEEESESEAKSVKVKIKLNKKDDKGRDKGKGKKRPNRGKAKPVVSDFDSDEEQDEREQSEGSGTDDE

Sequence of SMARCA4 (P51532 whole entry): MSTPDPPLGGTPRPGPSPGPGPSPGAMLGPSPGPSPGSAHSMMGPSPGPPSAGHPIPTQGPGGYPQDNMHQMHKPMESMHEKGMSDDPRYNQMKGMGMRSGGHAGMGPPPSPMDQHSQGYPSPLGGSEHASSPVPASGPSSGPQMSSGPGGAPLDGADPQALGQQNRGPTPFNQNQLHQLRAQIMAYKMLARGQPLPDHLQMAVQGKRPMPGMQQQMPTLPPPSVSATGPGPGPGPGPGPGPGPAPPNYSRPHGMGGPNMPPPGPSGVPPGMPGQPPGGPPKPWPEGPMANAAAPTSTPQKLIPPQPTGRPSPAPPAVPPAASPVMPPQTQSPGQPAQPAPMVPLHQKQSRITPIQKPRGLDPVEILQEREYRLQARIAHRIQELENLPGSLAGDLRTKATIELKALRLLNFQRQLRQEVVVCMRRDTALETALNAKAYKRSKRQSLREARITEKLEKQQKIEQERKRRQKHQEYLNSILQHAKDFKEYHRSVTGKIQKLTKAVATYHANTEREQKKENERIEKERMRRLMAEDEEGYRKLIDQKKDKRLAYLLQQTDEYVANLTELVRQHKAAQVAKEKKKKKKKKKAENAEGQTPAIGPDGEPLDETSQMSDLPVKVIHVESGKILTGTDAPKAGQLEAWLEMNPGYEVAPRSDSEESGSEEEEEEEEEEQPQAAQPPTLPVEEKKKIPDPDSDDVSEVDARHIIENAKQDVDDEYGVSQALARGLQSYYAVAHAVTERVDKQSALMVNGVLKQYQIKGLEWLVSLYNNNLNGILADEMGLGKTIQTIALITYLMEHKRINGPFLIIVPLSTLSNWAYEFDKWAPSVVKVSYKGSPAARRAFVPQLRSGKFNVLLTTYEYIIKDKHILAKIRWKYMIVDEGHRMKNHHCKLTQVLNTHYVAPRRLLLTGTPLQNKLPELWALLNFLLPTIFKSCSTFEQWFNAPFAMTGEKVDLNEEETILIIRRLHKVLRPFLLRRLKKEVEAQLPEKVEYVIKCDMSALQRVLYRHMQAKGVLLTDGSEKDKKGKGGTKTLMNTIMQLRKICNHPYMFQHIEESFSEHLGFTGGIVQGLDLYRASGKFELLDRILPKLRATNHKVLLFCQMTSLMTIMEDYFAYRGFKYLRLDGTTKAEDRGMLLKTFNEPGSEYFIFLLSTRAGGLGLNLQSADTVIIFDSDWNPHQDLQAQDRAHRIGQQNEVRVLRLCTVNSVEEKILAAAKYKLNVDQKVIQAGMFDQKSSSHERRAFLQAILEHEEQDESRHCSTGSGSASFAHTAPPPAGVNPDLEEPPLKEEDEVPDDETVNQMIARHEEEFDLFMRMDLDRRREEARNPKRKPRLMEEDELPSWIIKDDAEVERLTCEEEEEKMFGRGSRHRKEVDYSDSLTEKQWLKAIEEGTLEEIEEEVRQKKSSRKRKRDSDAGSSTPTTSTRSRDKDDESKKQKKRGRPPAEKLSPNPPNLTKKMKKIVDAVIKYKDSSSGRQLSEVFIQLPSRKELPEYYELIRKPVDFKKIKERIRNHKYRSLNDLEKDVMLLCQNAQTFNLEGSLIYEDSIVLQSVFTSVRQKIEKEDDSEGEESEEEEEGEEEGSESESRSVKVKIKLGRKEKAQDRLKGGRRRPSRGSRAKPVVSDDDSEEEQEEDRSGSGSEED

In the case of `Cc1ncsc1-c1ccc(C2(NC(=O)[C@@H]3C[C@@H](O)CN3C(=O)[C@@H](n3cc([C@H]4CC[C@H](CN5CCC(c6ccc7c(c6)-n6c(nc(=O)c8c(Cl)cccc86)C7(C)C)CC5)CC4)nn3)C(C)(C)C)CN(C)C2)cc1` [Compound B124, (2S,4R)-1-((S)-2-(4-((1r,4S)-4-((4-(4-chloro-7,7-dimethyl-5-oxo-5,7-dihydroindolo[1,2-a]quinazolin-10-yl)piperidin-1-yl)methyl)cyclohexyl)-1H-1,2,3-triazol-1-yl)-3,3-dimethylbutanoyl)-4-hydroxy-N-(1-methyl-3-(4-(4-methylthiazol-5-yl)phenyl)azetidin-3-yl)pyrrolidine-2-carboxamide], the figures for the DC50 on SMARCA4 and at SMARCA2 were 100 to 500 nM and less than 100 nM, respectively. Also, the results for the Dmax on SMARCA4 and at SMARCA2 were less than 50% and 70 to 90%, respectively.

As for `C[C@H](NC(=O)[C@@H]1C[C@@H](O)CN1C(=O)[C@@H](n1cc([C@H]2CC[C@H](CN3CCN(c4ccc5c(c4)-n4c(nc(=O)c6c(Cl)cccc64)C5(C)C)CC3)CC2)nn1)C(C)(C)C)c1ccc(-c2ccnn2C)cc1` [Compound B125, (2S,4R)-1-((S)-2-(4-((1r,4S)-4-((4-(4-chloro-7,7-dimethyl-5-oxo-5,7-dihydroindolo[1,2-a]quinazolin-10-yl)piperazin-1-yl)methyl)cyclohexyl)-1H-1,2,3-triazol-1-yl)-3,3-dimethylbutanoyl)-4-hydroxy-N-((S)-1-(4-(1-methyl-1H-pyrazol-5-yl)phenyl)ethyl)pyrrolidine-2-carboxamide], on SMARCA4, the DC50 was less than 100 nM and the Dmax was in the range of 70 to 90%. On SMARCA2, the DC50 was less than 100 nM and the Dmax is more than 90%.

Regarding `Cc1ncoc1-c1ccc([C@H](C)NC(=O)[C@@H]2C[C@@H](O)CN2C(=O)[C@@H](n2cc([C@H]3CC[C@H](CN4CCN(c5ccc6c(c5)-n5c(nc(=O)c7c(Cl)cccc75)C6(C)C)CC4)CC3)nn2)C(C)(C)C)cc1` [Compound B126, (2S,4R)-1-((S)-2-(4-((1r,4S)-4-((4-(4-chloro-7,7-dimethyl-5-oxo-5,7-dihydroindolo[1,2-a]quinazolin-10-yl)piperazin-1-yl)methyl)cyclohexyl)-1H-1,2,3-triazol-1-yl)-3,3-dimethylbutanoyl)-4-hydroxy-N-((S)-1-(4-(4-methyloxazol-5-yl)phenyl)ethyl)pyrrolidine-2-carboxamide], the DC50 on SMARCA4 and at SMARCA2 was less than 100 nM throughout. For the same compound, the results for the Dmax on SMARCA4 and at SMARCA2 were 50 to 69% and more than 90%, respectively.

`C[C@H](NC(=O)[C@@H]1C[C@@H](O)CN1C(=O)[C@@H](n1cc([C@H]2CC[C@H](CN3CCN(c4ccc5c(c4)-n4c(nc(=O)c6c(Cl)cccc64)C5(C)C)CC3)CC2)nn1)C(C)(C)C)c1ccc(-c2ccn[nH]2)cc1` [Compound B127, (2S,4R)-N-((S)-1-(4-(1H-pyrazol-5-yl)phenyl)ethyl)-1-((S)-2-(4-((1r,4S)-4-((4-(4-chloro-7,7-dimethyl-5-oxo-5,7-dihydroindolo[1,2-a]quinazolin-10-yl)piperazin-1-yl)methyl)cyclohexyl)-1H-1,2,3-triazol-1-yl)-3,3-dimethylbutanoyl)-4-hydroxypyrrolidine-2-carboxamide]: on SMARCA4, the DC50 was less than 100 nM and the Dmax fell in the range of 70 to 90%. Also, on SMARCA2, the DC50 was less than 100 nM and the Dmax is more than 90%.

For the compound `C#Cc1ccc([C@H](C)NC(=O)[C@@H]2C[C@@H](O)CN2C(=O)[C@H](C(C)C)n2cc([C@H]3CC[C@H](CN4CCC(c5ccc6c(c5)-n5c(nc(=O)c7c(Cl)cccc75)C6(C)C)CC4)CC3)nn2)cc1` [Compound B128, (2S,4R)-1-((S)-2-(4-((1r,4S)-4-((4-(4-chloro-7,7-dimethyl-5-oxo-5,7-dihydroindolo[1,2-a]quinazolin-10-yl)piperidin-1-yl)methyl)cyclohexyl)-1H-1,2,3-triazol-1-yl)-3-methylbutanoyl)-N-((S)-1-(4-ethynylphenyl)ethyl)-4-hydroxypyrrolidine-2-carboxamide], on SMARCA4, the DC50 is less than 100 nM and the Dmax was 70 to 90%. Moreover, at SMARCA2, the DC50 is less than 100 nM and the Dmax is more than 90%.

For the compound `Cc1ncsc1-c1ccc([C@H](CN2CCOCC2)NC(=O)[C@@H]2C[C@@H](O)CN2C(=O)[C@H](C(C)C)n2cc([C@H]3CC[C@H](CN4CCN(c5ccc6c(c5)-n5c(nc(=O)c7c(Cl)cccc75)C6(C)C)CC4)CC3)nn2)cc1` [Compound B129, (2S,4R)-1-((S)-2-(4-((1r,4S)-4-((4-(4-chloro-7,7-dimethyl-5-oxo-5,7-dihydroindolo[1,2-a]quinazolin-10-yl)piperazin-1-yl)methyl)cyclohexyl)-1H-1,2,3-triazol-1-yl)-3-methylbutanoyl)-4-hydroxy-N-((R)-1-(4-(4-methylthiazol-5-yl)phenyl)-2-morpholinoethyl)pyrrolidine-2-carboxamide], at SMARCA4, the DC50 is less than 100 nM and the Dmax was 70 to 90%. Further, on SMARCA2, the DC50 is less than 100 nM and the Dmax is more than 90%.

Take `Cc1ncsc1-c1ccc([C@H](C)NC(=O)[C@@H]2C[C@@H](O)CN2C(=O)[C@@H](c2cc(OCC#Cc3cccc4c3C(C)(C)c3nc(=O)c5c(Cl)cccc5n3-4)no2)C(C)C)cc1` [Compound B130, (2S,4R)-1-((R)-2-(3-((3-(4-chloro-7,7-dimethyl-5-oxo-5,7-dihydroindolo[1,2-a]quinazolin-8-yl)prop-2-yn-1-yl)oxy)isoxazol-5-yl)-3-methylbutanoyl)-4-hydroxy-N-((S)-1-(4-(4-methylthiazol-5-yl)phenyl)ethyl)pyrrolidine-2-carboxamide]: on SMARCA4, the DC50 lay in the range of 100 to 500 nM and the Dmax was 50 to 69%. Besides, on SMARCA2, the DC50 was less than 100 nM and the Dmax is more than 90%.

With `CC#Cc1ccc([C@H](C)NC(=O)[C@@H]2C[C@@H](O)CN2C(=O)[C@H](C(C)C)n2cc([C@H]3CC[C@H](CN4CCC(c5ccc6c(c5)-n5c(nc(=O)c7c(Cl)cccc75)C6(C)C)CC4)CC3)nn2)cc1` [Compound B131, (2S,4R)-1-((S)-2-(4-((1r,4S)-4-((4-(4-chloro-7,7-dimethyl-5-oxo-5,7-dihydroindolo[1,2-a]quinazolin-10-yl)piperidin-1-yl)methyl)cyclohexyl)-1H-1,2,3-triazol-1-yl)-3-methylbutanoyl)-4-hydroxy-N-((S)-1-(4-(prop-1-yn-1-yl)phenyl)ethyl)pyrrolidine-2-carboxamide], at SMARCA4, the DC50 was less than 100 nM and the Dmax was in the range of 50 to 69%. Moreover, at SMARCA2, the DC50 is less than 100 nM and the Dmax is more than 90%.

`Cc1ncsc1-c1ccc([C@H](C)NC(=O)[C@@H]2C[C@@H](O)CN2C(=O)[C@H](C(C)C)n2cc(CC3CCC(N4CCC(c5cccc6c5C(C)(C)c5nc(=O)c7c(Cl)cccc7n5-6)CC4)CC3)nn2)cc1` (stereo partly drawn) [Compound B132, (2S,4R)-1-((S)-2-(4-((4-(4-(4-chloro-7,7-dimethyl-5-oxo-5,7-dihydroindolo[1,2-a]quinazolin-8-yl)piperidin-1-yl)cyclohexyl)methyl)-1H-1,2,3-triazol-1-yl)-3-methylbutanoyl)-4-hydroxy-N—((S)-1-(4-(4-methylthiazol-5-yl)phenyl)ethyl)pyrrolidine-2-carboxamide]: on SMARCA4, the DC50 was 100 to 500 nM and the Dmax fell in the range of 70 to 90%. For the same compound, on SMARCA2, the DC50 is less than 100 nM and the Dmax is more than 90%.
